{"source": "the supplement of paper PMC10307832", "assay_in_all_cases": "relative viability (nuclei count vs DMSO), 5 days (fraction); higher = more cells survive", "key": {"Motesanib + Foretinib": {"compound": "CC1(C)CNc2cc(NC(=O)c3cccnc3NCc3ccncc3)ccc21 [Motesanib] + COc1cc2c(Oc3ccc(NC(=O)C4(C(=O)Nc5ccc(F)cc5)CC4)cc3F)ccnc2cc1OCCCN1CCOCC1 [Foretinib] (partner 0.25 µM)", "summary_of_the_method": "(§1)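 Relative viability divides the nuclei count in treated wells by that in vehicle wells. Lung cancer cell lines were seeded in 1536-well plates, dosed by pin tool the next day, and fixed and stained after 5 days in one step with final 0.05% Triton X-100, 1% formaldehyde and 1 ug/ml Hoechst. Dosing was a single drug or a fixed anchor-drug dose plus five library-drug doses (not always all listed) in √10 steps, and values are medians of duplicate plates imaged at 4×.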"}, "[1]": {"compound": "C[C@@]1(C(=O)Nc2ccc(F)nc2)CCCN1c1nc(Nc2cc(C3CC3)n[nH]2)c2cccn2n1 + C[C@@H](Oc1cc(-c2cnn(C3CCNCC3)c2)cnc1N)c1c(Cl)ccc(F)c1Cl [Crizotinib] (partner 1 µM)", "summary_of_the_method": "as §1"}, "Motesanib + Pemetrexed": {"compound": "CC1(C)CNc2cc(NC(=O)c3cccnc3NCc3ccncc3)ccc21 [Motesanib] + Nc1nc2[nH]cc(CCc3ccc(C(=O)N[C@@H](CCC(=O)O)C(=O)O)cc3)c2c(=O)[nH]1 [Pemetrexed] (partner 0.2 µM)", "summary_of_the_method": "as §1"}, "[2]": {"compound": "C[C@@]1(C(=O)Nc2ccc(F)nc2)CCCN1c1nc(Nc2cc(C3CC3)n[nH]2)c2cccn2n1 + CC(C)C[C@H](NC(=O)[C@H](Cc1ccccc1)NC(=O)c1cnccn1)B(O)O [Bortezomib] (partner 0.002 µM)", "summary_of_the_method": "as §1"}}, "data": [{"cell line": "UMC-11", "values": [{"measurement": "relative viability", "setting": "Motesanib + Foretinib; first compound 0.01 µM", "value": 0.998}, {"measurement": "relative viability", "setting": "Motesanib + Foretinib; first compound 0.03162 µM", "value": 1.08}, {"measurement": "relative viability", "setting": "Motesanib + Foretinib; first compound 0.1 µM", "value": 0.985}, {"measurement": "relative viability", "setting": "Motesanib + Foretinib; first compound 0.3162 µM", "value": 1.08}, {"measurement": "relative viability", "setting": "Motesanib + Foretinib; first compound 1 µM", "value": 1.2}, {"measurement": "relative viability", "setting": "[1]; first compound 0.04 µM", "value": 0.615}, {"measurement": "relative viability", "setting": "[1]; first compound 0.1265 µM", "value": 0.628}, {"measurement": "relative viability", "setting": "[1]; first compound 0.4 µM", "value": 0.534}, {"measurement": "relative viability", "setting": "[1]; first compound 1.265 µM", "value": 0.328}, {"measurement": "relative viability", "setting": "Motesanib + Pemetrexed; first compound 0.01 µM", "value": 0.834}, {"measurement": "relative viability", "setting": "Motesanib + Pemetrexed; first compound 0.03162 µM", "value": 0.696}, {"measurement": "relative viability", "setting": "Motesanib + Pemetrexed; first compound 0.1 µM", "value": 0.575}, {"measurement": "relative viability", "setting": "Motesanib + Pemetrexed; first compound 0.3162 µM", "value": 0.608}, {"measurement": "relative viability", "setting": "Motesanib + Pemetrexed; first compound 1 µM", "value": 0.556}, {"measurement": "relative viability", "setting": "[2]; first compound 0.04 µM", "value": 0.79}, {"measurement": "relative viability", "setting": "[2]; first compound 0.1265 µM", "value": 0.829}, {"measurement": "relative viability", "setting": "[2]; first compound 0.4 µM", "value": 0.598}, {"measurement": "relative viability", "setting": "[2]; first compound 1.265 µM", "value": 0.733}]}]}
